Measured values reported in patent US7169290B1, “Biosensor for metal analysis and speciation” (Battelle Energy Alliance, LLC, priority 2002, dated 2007).

Assays:
Assay type in all cases: biochemical
[1] = target: T1, purified A. niger NR (E.C. 1.6.6.2) (Aspergillus niger, UniProt P36858); experiment: Evaluation of buffer-metal interactions, NR activity by rate of NADPH disappearance; conditions: 5 μM metal; for NR sensitivity to metal in TRIS buffered system: 30 mM TRIS buffer pH 7.5; for NR sensitivity to metal in phosphate buffered system: 30 mM phosphate buffer pH 7.5
T1 construct: purchased Sigma-Aldrich Co. (St. Louis, Mo.)
T1 sequence (P36858 1-867): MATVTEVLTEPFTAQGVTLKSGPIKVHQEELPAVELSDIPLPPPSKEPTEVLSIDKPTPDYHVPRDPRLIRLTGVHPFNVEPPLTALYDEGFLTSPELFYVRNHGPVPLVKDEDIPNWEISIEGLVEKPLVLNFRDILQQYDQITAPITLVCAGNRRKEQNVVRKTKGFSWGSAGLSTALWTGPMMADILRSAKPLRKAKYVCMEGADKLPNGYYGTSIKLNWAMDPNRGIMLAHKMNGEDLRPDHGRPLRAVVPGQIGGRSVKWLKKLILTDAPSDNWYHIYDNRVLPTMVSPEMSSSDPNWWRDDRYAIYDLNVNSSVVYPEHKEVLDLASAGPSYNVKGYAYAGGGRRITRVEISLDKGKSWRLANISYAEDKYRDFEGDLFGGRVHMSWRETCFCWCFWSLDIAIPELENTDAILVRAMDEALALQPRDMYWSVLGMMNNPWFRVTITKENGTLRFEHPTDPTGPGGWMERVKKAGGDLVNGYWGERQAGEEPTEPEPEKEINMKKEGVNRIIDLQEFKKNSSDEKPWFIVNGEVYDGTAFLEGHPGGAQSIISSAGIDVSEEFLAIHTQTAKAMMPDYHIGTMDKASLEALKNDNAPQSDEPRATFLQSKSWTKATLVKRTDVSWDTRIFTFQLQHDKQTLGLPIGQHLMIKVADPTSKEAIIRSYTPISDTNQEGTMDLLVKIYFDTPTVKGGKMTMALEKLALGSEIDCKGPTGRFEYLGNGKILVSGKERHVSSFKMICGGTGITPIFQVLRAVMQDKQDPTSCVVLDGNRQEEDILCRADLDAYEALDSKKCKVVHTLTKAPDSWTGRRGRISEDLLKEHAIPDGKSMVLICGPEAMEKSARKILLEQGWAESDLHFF
Protocol: To determine the buffer that would provide minimal metal-buffer complexation and, therefore, allow maximal metal inhibition to NR activity, an analysis of various pH buffers was performed. HEPES, MOPS, PIPES, phosphate, and TRIS buffers were individually evaluated in the presence of NR and 5 μM of each of the following metals: Cr^3+, Cr^6+, Cd^2+, Cu^2+, Pb^2+, and Zn^2+. An unbuffered assay system was used to establish a baseline of metal-induced enzyme inhibition. Reagents were added in the following order: the metal stock solution, the buffer solution, KNO3 solution, NR, and NADPH.
For these buffer experiments, NR and NADPH solutions were prepared in water rather than in the 30 mM MOPS, as was done for all other experiments. The final concentration of all reagents was 30 mM of each respective buffer, 5 μM metal, 50 μg ml^−1 NR, 10 mM KNO3 and 0.1 mM NADPH. NADPH addition initiated the reaction but NR activity was determined following the method described in Gilliam et al., Anal. Biochem., 212:359–365 (1993), which is based on the rate of NADPH disappearance. The presence of NADPH, which has a peak absorbance at 340 nm, was monitored with respect to time for 3 minutes using a Hewlett Packard 8452A UV-Vis spectrophotometer. NR activity was then reported as a ratio of the change in absorbance of a metal-containing sample to the change in absorbance of a positive (metal-free) control. The inherent instability of NADPH and the potential for oxidation in the presence of the metals used in these experiments was accounted for in negative controls, which contained all reagents but NR.
To select a buffering system that allowed for maximum inhibition of the enzyme by metal ions, several common buffers, HEPES, MOPS, PIPES, Phosphate and TRIS were tested in metal inhibition assays. The buffers used in the assay affected the sensitivity of NR to the metal ions examined due to some of the buffers' ability to chelate metal ions, as shown in FIG. 1. NR activity is reported as the percent of a metal free control. Values represent the averages of five replicate experiments. NR activity assays were also run in an unbuffered water system to establish a baseline level of metal sensitivity and to determine if the buffers were shielding NR from inhibition by any of the metals that were examined. An unbuffered assay system was not selected for further experiments because the pH was not uniformly maintained for the various conditions under which NR activity would be measured. […] Therefore, MOPS was chosen for use in subsequent metal inhibition assays over a wider range of metal concentrations. The phosphate and TRIS buffers appeared to selectively protect NR against different metals. […] The opposite was found when the assay was conducted in a TRIS buffered system where NR was insensitive to Cu^2+ ions and was inhibited by Cd^2+, Cr^6+, Pb^2+, and Zn^2+.

[2] = target: T1, purified A. niger NR (E.C. 1.6.6.2); experiment: Regeneration of metal inactivated NR activity by 10 mM EDTA; conditions: for NR activity after EDTA treatment, % of control: 100 μM metal five minutes, then 10 mM EDTA; for restoration of NR activity by EDTA after metal exposure / NR activity before EDTA treatment, % of control: 100 μM metal; for restoration of NR activity by EDTA after metal exposure: 10 mM EDTA; for NR activity before EDTA treatment, % of control: five minutes, 25° C., 10 mM KNO3
Protocol: To determine whether inhibition caused by exposure to the metals could be reversed by the addition of EDTA, NR was exposed to 100 μM of the following metals: Cd^2+, Cr^3+, Cu^2+, Pb^2+ and Zn^2+ for five minutes in a 96-well plate and incubated at 25° C. with 10 mM KNO3. After five minutes, 10 mM EDTA was added and solutions were shaken for 10 seconds. NADPH was added to sets of positive controls, negative controls, and metal/NR and EDTA for evaluation of NR activity both immediately after EDTA addition and 30 minutes after EDTA addition. Enzyme activity was measured by determining the amount of nitrite produced and reported as a percent of a positive control.

[3] = target: T1, purified A. niger NR (E.C. 1.6.6.2); experiment: EDTA and NTA chelation experiments, NR activity by nitrite production; conditions: for effect of EDTA on the metal's ability to inhibit NR: EDTA 0.1 to 10 mM
Protocol: To determine the ability of chelating agents to prevent NR inhibition, EDTA or NTA was added to the enzymatic assay. For the experiments in which either EDTA or NTA was used, the reagents were added in the following order: the appropriate metal solution, EDTA or NTA, NR, nitrate, and finally NADPH. To allow sufficient time for the metal and chelating agent to react, the metal and either EDTA or NTA were added together prior to the addition of NR. Final assay metal ion concentrations ranged from 0.01 to 1000 μM. EDTA and NTA had final concentrations of 0.1 mM, 1 mM and 10 mM. Final concentrations of NR, KNO3 and NADPH were as described above. NR activity was assayed by monitoring the production of nitrite, as described above.

[4] = target: T1, purified A. niger NR (E.C. 1.6.6.2); experiment: Metal inhibition of NR activity, colorimetric nitrite production (Griess reaction), MOPS buffer; conditions: for enzyme inhibition: 1 μM metal ion; for enzyme inhibition / span of concentrations over which NR activity is inhibited: MOPS buffer; for span of concentrations over which NR activity is inhibited: no chelating agent
Protocol: NR activity was measured using the Griess reaction in which nitrite is colorimetrically determined by diazotization and diazomium coupling reactions of nitrite with sulfanilamide and N-(1-naphthyl)ethylenediamine. Measurements were conducted in 96-well microtiter plates, allowing multiple reactions to be quantified simultaneously. The assay followed the method as described in R. Kneer et al., Phytochemistry, 31:2663–2667 (1992), with modifications including the adaptation for use in a 96-well plate format, the reduction of the assay time to 5 minutes, and the substitution of a 12.5 mM MOPS buffer instead of the 33 mM TRIS buffer used.
This was followed by the addition of 40 μl 0.2% (wt.) N-(1-naphthyl)ethylenediamine. The absorbance of the resulting pink solution read at 540 nm was recorded after ten minutes using a microplate reader (HTS7000 Plus Bioassay Reader, Perkin Elmer, Conn.).
Negative controls containing all reagents except NR were run and analyzed for nitrite. An activity of 100% indicated the rate of nitrate conversion in the absence of Cr(III). Positive controls, which comprised no metal but comprised all other reagents, were also run. Additional controls comprising nitrite, NR and NADPH were run to rule out the possibility that NR reduced the nitrite.
NR activity is reported as a percentage of the experimentally measured activity of the positive (metal-free) control or as a ratio of the change in absorbance of a metal-containing sample to the change in absorbance of a positive (metal-free) control. An activity of 100% indicated the rate of nitrate conversion in the absence of the metal. Data points represent the averages of seven replicate experiments and error bars represent the standard deviation of those averages, unless otherwise stated.
NR, NADPH, and KNO3 were used in the same concentrations as in the metal-free NR and buffer evaluation assays. For metal-inhibition studies in the absence of a chelating agent, the appropriate concentration of metal stock solution was added to the NR and KNO3 solution. The mixture was allowed to incubate at 25° C. for five minutes prior to the addition of NADPH to allow adequate time for the metal and NR to interact. A 12.5 mM MOPS buffer solution was used to maintain the pH at 7.5. Final metal concentrations in the assay solution ranged from 0.01 μM to 1000 μM. Enzyme activity was determined as described above by the calorimetric quantification of nitrite production and reported as a percentage of the nitrite produced in a metal-free control.
The sensitivity of NR to Cr(III) was determined at concentrations ranging from 1 to 10 μM. […] To further determine the extent to which NR was sensitive to metals in aqueous samples, the activity of purified NR was evaluated in the presence of Cd^2+, Cu^2+, Cr^3+, Cr^6+, Ni^2+, Pb^2+, and Zn^2+ ions at concentrations ranging from 0.01 to 1000 μM.

[5] = 12.5 mM MOPS pH 7.5, no chelating agent

| SMILES | NR sensitivity to metal in TRIS buffered system [1] | NR sensitivity to metal in phosphate buffered system [1] | NR activity after EDTA treatment, % of control [2] | restoration of NR activity by EDTA after metal exposure [2] | NR activity before EDTA treatment, % of control [2] | effect of NTA on the inhibitory effects of the metal ([3]; 1 mM NTA) | increase of the concentration range over which the metal inhibited NR ([3]; 10 mM EDTA) | metal concentration up to which EDTA protected NR activity ([3]; 10 mM EDTA) | protection of NR by NTA from exposure to the metal ([3]; 10 mM NTA) | effect of EDTA on the metal's ability to inhibit NR ([3]; listed as Cr(VI)) | effect of EDTA on the metal's ability to inhibit NR ([3]; listed as Cr^6+) | NTA concentration up to which the metal's inhibitory effects on NR activity were not affected ([3]; NTA added to assay) | enzyme inhibition [4] [%] | metal concentration at which NR activity was substantially inhibited [4, 5] | metal concentration at which NR activity was substantially inhibited ([4]; 12.5 mM MOPS pH 7.5, no chelating agent, listed as Cr^6+) [µM] | span of concentrations over which NR activity is inhibited [4] | metal concentrations over which NTA protected NR from metal induced inhibition ([3]; 10 mM NTA) | NR activity retained, percent of original activity (metal free control) ([4]; 1000 μM metal ion, 12.5 mM MOPS pH 7.5) [%] | metal concentration at which NR activity was inhibited / adversely affected [4, 5] |
| --- | --- | --- | --- | --- | --- | --- | --- | --- | --- | --- | --- | --- | --- | --- | --- | --- | --- | --- | --- |
| [Cd+2] [Cd^2+, cadmium] | inhibited | relatively insensitive | 28% ± | partially restored | 2.7% ± | – | – | – | – | – | – | – | – | – | – | – | – | – | – |
| [Cr+3] [Cr^3+, chromium] | inhibited | relatively insensitive | 4.3% ± 1.9% | unable to significantly restore | 5.7% ± 10% | did not affect | two orders of magnitude | up to 100 μM | did not protect | unchanged | virtually unaffected | up to 10 mM | 62 | above 4 μM | 1 | several orders of magnitude | – | – | – |
| [Cu+2] [Cu^2+, copper] | insensitive | inhibited | 5.1% ± 1.5% | unable to significantly restore | 1.0% ± 0.3% | – | – | – | – | – | – | – | 76 | 1 µM | – | several orders of magnitude | up to 100 μM | – | – |
| [Ni+2] [Ni^2+, nickel] | – | – | – | – | – | – | – | – | – | – | – | – | – | – | – | – | – | ~20 | over 100 μM |
| [Pb+2] [Pb^2+, lead] | inhibited | relatively insensitive | 40% ± | partially restored | 1.3% ± | – | – | – | – | – | – | – | – | – | – | – | – | – | – |
| [Zn+2] [Zn^2+, zinc] | inhibited | relatively insensitive | 54% ± | partially restored | 6.6% ± | – | – | – | – | – | – | – | – | – | – | – | – | – | – |
